According to patent publication US8877748B2, “Heterocyclic fused anthraquinone derivatives, manufacturing method and pharmaceutical composition using thereof” (National Defense Medical Center, priority 2012, dated 2014):

What was measured:
TK-10 = experiment: NCI one-dose screening, renal cancer TK-10; type: cell-based, human; conditions: 10 μM
SK-MEL-5 = experiment: NCI one-dose screening, melanoma SK-MEL-5; type: cell-based, human; conditions: 10 μM
M14 = experiment: NCI one-dose screening, melanoma M14; type: cell-based, human; conditions: 10 μM
NCI-H226 = experiment: NCI one-dose screening, non-small cell lung cancer NCI-H226; type: cell-based, human; conditions: 10 μM
RXF, 393 = experiment: NCI one-dose screening, renal cancer RXF, 393; type: cell-based, human; conditions: 10 μM
CAKI-1 = experiment: NCI one-dose screening, renal cancer CAKI-1; type: cell-based, human; conditions: 10 μM
PC-3 = experiment: NCI one-dose screening, prostate cancer PC-3; type: cell-based, human; conditions: 10 μM
NCI-H23 = experiment: NCI one-dose screening, non-small cell lung cancer NCI-H23; type: cell-based, human; conditions: 10 μM
HCT-15 = experiment: NCI one-dose screening, colon cancer HCT-15; type: cell-based, human; conditions: 10 μM
KM12 = experiment: NCI one-dose screening, colon cancer KM12; type: cell-based, human; conditions: 10 μM
T-47D = experiment: NCI one-dose screening, breast cancer T-47D; type: cell-based, human; conditions: 10 μM
MCF7 = experiment: NCI one-dose screening, breast cancer MCF7; type: cell-based, human; conditions: 10 μM
HOP-62 = experiment: NCI one-dose screening, non-small cell lung cancer HOP-62; type: cell-based, human; conditions: 10 μM
A549/ATCC = experiment: NCI one-dose screening, non-small cell lung cancer A549/ATCC; type: cell-based, human; conditions: 10 μM
K562cell line = experiment: NCI one-dose screening, leukemia K562; type: cell-based, human; conditions: 10 μM
NCI-H460 = experiment: NCI one-dose screening, non-small cell lung cancer NCI-H460; type: cell-based, human; conditions: 10 μM
SK-MEL-28 = experiment: NCI one-dose screening, melanoma SK-MEL-28; type: cell-based, human; conditions: 10 μM
NCl/ADR-RES = experiment: NCI one-dose screening, breast cancer NCl/ADR-RES; type: cell-based, human; conditions: 10 μM; listed under Ovarian cancer
human tumor cell lines = experiment: NCI one-dose screening, Mean / Delta / Range of growth percent over all tested cell lines; type: cell-based; conditions: 10 μM
SF-268 = experiment: NCI one-dose screening, CNS cancer SF-268; type: cell-based, human; conditions: 10 μM
HCT-116 = experiment: NCI one-dose screening, colon cancer HCT-116; type: cell-based, human; conditions: 10 μM
UACC-62 = experiment: NCI one-dose screening, melanoma UACC-62; type: cell-based, human; conditions: 10 μM
SK-MEL-2 = experiment: NCI one-dose screening, melanoma SK-MEL-2; type: cell-based, human; conditions: 10 μM
SNB-75 = experiment: NCI one-dose screening, CNS cancer SNB-75; type: cell-based, human; conditions: 10 μM
SK-OV-3 = experiment: NCI one-dose screening, ovarian cancer SK-OV-3; type: cell-based, human; conditions: 10 μM
UACC-257 = experiment: NCI one-dose screening, melanoma UACC-257; type: cell-based, human; conditions: 10 μM
MOLT-4 = experiment: NCI one-dose screening, leukemia MOLT-4; type: cell-based, human; conditions: 10 μM
MALME-3M = experiment: NCI one-dose screening, melanoma MALME-3M; type: cell-based, human; conditions: 10 μM
LOX IMVI = experiment: NCI one-dose screening, melanoma LOX IMVI; type: cell-based, human; conditions: 10 μM
MDA, -MB-435 = experiment: NCI one-dose screening, breast cancer MDA, -MB-435; type: cell-based, human; conditions: 10 μM; listed under Melanoma
SF-539 = experiment: NCI one-dose screening, CNS cancer SF-539; type: cell-based, human; conditions: 10 μM
SNB-19 = experiment: NCI one-dose screening, CNS cancer SNB-19; type: cell-based, human; conditions: 10 μM
UO-31 = experiment: NCI one-dose screening, renal cancer UO-31; type: cell-based, human; conditions: 10 μM
OVCAR-5 = experiment: NCI one-dose screening, ovarian cancer OVCAR-5; type: cell-based, human; conditions: 10 μM
HCC-2998 = experiment: NCI one-dose screening, colon cancer HCC-2998; type: cell-based, human; conditions: 10 μM
NCI-H522 = experiment: NCI one-dose screening, non-small cell lung cancer NCI-H522; type: cell-based, human; conditions: 10 μM
HL-60, TB = experiment: NCI one-dose screening, leukemia HL-60, TB; type: cell-based, human; conditions: 10 μM
OVCAR-3 = experiment: NCI one-dose screening, ovarian cancer OVCAR-3; type: cell-based, human; conditions: 10 μM
PRMI-8226 cell line = experiment: NCI one-dose screening, leukemia PRMI-8226; type: cell-based, human; conditions: 10 μM
EKVX = experiment: NCI one-dose screening, non-small cell lung cancer EKVX; type: cell-based, human; conditions: 10 μM
IGROV1 = experiment: NCI one-dose screening, ovarian cancer IGROV1; type: cell-based, human; conditions: 10 μM
OVCAR-8 = experiment: NCI one-dose screening, ovarian cancer OVCAR-8; type: cell-based, human; conditions: 10 μM
BT-549 = experiment: NCI one-dose screening, breast cancer BT-549; type: cell-based, human; conditions: 10 μM
HS 578-T = experiment: NCI one-dose screening, breast cancer HS 578-T; type: cell-based, human; conditions: 10 μM; Breast cancer
SN12C = experiment: NCI one-dose screening, renal cancer SN12C; type: cell-based, human; conditions: 10 μM
HOP-92 = experiment: NCI one-dose screening, non-small cell lung cancer HOP-92; type: cell-based, human; conditions: 10 μM
[1] = NCI one-dose screening, renal cancer A489; type: cell-based, human; conditions: 10 μM
ACHN = experiment: NCI one-dose screening, renal cancer ACHN; type: cell-based, human; conditions: 10 μM
[2] = test system: PC-3 prostate cancer cell line; experiment: SRB assay cell viability, PC-3 prostate cancer cell line; type: cell-based, human; conditions: PC-3 prostate cancer cell line, Table II prints no unit, μM printed, read-out: SRB assay: 50% inhibition of cancer cell proliferation of sample concentration (IC50) of PC-3 prostate cancer cell line
U251 = experiment: NCI one-dose screening, CNS cancer U251; type: cell-based, human; conditions: 10 μM
MDA-MB-231/ATCC = experiment: NCI one-dose screening, breast cancer MDA-MB-231/ATCC; type: cell-based, human; conditions: 10 μM
SF-295 = experiment: NCI one-dose screening, CNS cancer SF-295; type: cell-based, human; conditions: 10 μM
786-O = experiment: NCI one-dose screening, renal cancer 786-O; type: cell-based, human; conditions: 10 μM
SR = experiment: NCI one-dose screening, leukemia SR; type: cell-based, human; conditions: 10 μM
DU145 = experiment: NCI one-dose screening, prostate cancer DU145; type: cell-based, human; conditions: 10 μM
HT29 = experiment: NCI one-dose screening, colon cancer HT29; type: cell-based, human; conditions: 10 μM
COLO 205 = experiment: NCI one-dose screening, colon cancer COLO 205; type: cell-based, human; conditions: 10 μM
MDA-MB-468 = experiment: NCI one-dose screening, breast cancer MDA-MB-468; type: cell-based, human; conditions: 10 μM

4-(o-phenylmethyl thio)anthra[2,1-c] [1,2,5]thiadiazol-6,11-dione [C48]
Growth Percent TK-10 (TK-10): 122.97%
Growth Percent SK-MEL-5 (SK-MEL-5): 87.54%
Growth Percent M14 (M14): 94.25%
Growth Percent NCI-H226 (NCI-H226): 95.71%
Growth Percent RXF 393 (RXF, 393): 95.88%
Growth Percent CAKI-1 (CAKI-1): 81.47%
Growth Percent PC-3 (PC-3): 73.26%
Growth Percent NCI-H23 (NCI-H23): 53.21%
Growth Percent HCT-15 (HCT-15): 38.57%
Growth Percent KM12 (KM12): 103.11%
Growth Percent T-47D (T-47D): 51.89%
Growth Percent MCF7 (MCF7): 66.12%
Growth Percent HOP-62 (HOP-62): 59.51%
Growth Percent A549/ATCC (A549/ATCC): 104.68%
Growth Percent K562 (K562cell line): 32.30%
Growth Percent NCI-H460 (NCI-H460): 88.86%
Growth Percent SK-MEL-28 (SK-MEL-28): 105.73%
Growth Percent NCI/ADR-RES (NCl/ADR-RES): 59.53%
Growth Percent Delta (human tumor cell lines; delta over all cell lines): 75.31%
Growth Percent Mean (human tumor cell lines; mean over all cell lines): 80.61%
Growth Percent Range (human tumor cell lines; range over all cell lines): 120.98%
Growth Percent SF-268 (SF-268): 74.73%
Growth Percent HCT-116 (HCT-116): 92.15%
Growth Percent UACC-62 (UACC-62): 90.69%
Growth Percent SK-MEL-2 (SK-MEL-2): 73.29%
Growth Percent SNB-75 (SNB-75): 76.30%
Growth Percent SK-OV-3 (SK-OV-3): 93.79%
Growth Percent UACC-257 (UACC-257): 87.32%
Growth Percent MOLT-4 (MOLT-4): 67.31%
Growth Percent MALME-3M (MALME-3M): 96.77%
Growth Percent LOX IMVI (LOX IMVI): 30.01%
Growth Percent MDA-MB-435 (MDA, -MB-435): 80.61%
Growth Percent SF-539 (SF-539): 78.04%
Growth Percent SNB-19 (SNB-19): 103.54%
Growth Percent UO-31 (UO-31): 62.14%
Growth Percent OVCAR-5 (OVCAR-5): 126.28%
Growth Percent HCC-2998 (HCC-2998): 124.00%
Growth Percent NCI-H522 (NCI-H522): 74.81%
Growth Percent HL-60(TB) (HL-60, TB): −79.53%
Growth Percent OVCAR-3 (OVCAR-3): 5.30%
Growth Percent RPMI-8226 (PRMI-8226 cell line): 48.56%
Growth Percent EKVX (EKVX): 104.56%
Growth Percent IGROV1 (IGROV1): 80.06%
Growth Percent OVCAR-8 (OVCAR-8): 76.29%
Growth Percent BT-549 (BT-549): 95.35%
Growth Percent HS 578T (HS 578-T): 83.69%
Growth Percent SN12C (SN12C): 85.97%
Growth Percent HOP-92 (HOP-92): 89.91%
Growth Percent A498 [1]: 85.54%
Growth Percent ACHN (ACHN): 89.76%
IC50 [2]: > 15 µM
Growth Percent U251 (U251): 62.36%
Growth Percent MDA-MB-231/ATCC (MDA-MB-231/ATCC): 60.72%
Growth Percent SF-295 (SF-295): 104.92%
Growth Percent 786-0 (786-O): 100.36%
Growth Percent SR (SR): 23.00%
Growth Percent DU145 (DU145): 101.53%
Growth Percent HT29 (HT29): 104.31%
Growth Percent COLO 205 (COLO 205): 99.23%
Growth Percent MDA-MB-468 (MDA-MB-468): 53.68%
